Assay results taken from ChEMBL document CHEMBL4130471, “Design and synthesis of tranylcypromine derivatives as novel LSD1/HDACs dual inhibitors for cancer treatment” (Eur J Med Chem, 2017).
One block for each compound: values may come before it. Active and inactive are the calls of the source. The rule behind the calls is not given here.

Legend:
MGC-803 [1] = test: cells; assay type: functional, cell-based; conditions: Homo sapiens, MGC-803, 72 h
Description: Antiproliferative activity against human MGC803 cells incubated for 72 hrs by MTT assay

Histone deacetylase 2 = Histone deacetylase 2 (Homo sapiens, UniProt Q92769)
Description: Inhibition of C-terminal His-tagged full length human HDAC2 expressed in baculovirus expression system using Ac-peptide substrate incubated for 15 mins by fluorescence based assay

PC-3 = test: cells; assay type: functional, cell-based; conditions: Homo sapiens, PC-3, 72 h
Description: Antiproliferative activity against human PC3 cells incubated for 72 hrs by MTT assay

[2] = molecular target: T1, Amine oxidase [flavin-containing] A (Homo sapiens, UniProt P21397)
T1 sequence (P21397 whole entry): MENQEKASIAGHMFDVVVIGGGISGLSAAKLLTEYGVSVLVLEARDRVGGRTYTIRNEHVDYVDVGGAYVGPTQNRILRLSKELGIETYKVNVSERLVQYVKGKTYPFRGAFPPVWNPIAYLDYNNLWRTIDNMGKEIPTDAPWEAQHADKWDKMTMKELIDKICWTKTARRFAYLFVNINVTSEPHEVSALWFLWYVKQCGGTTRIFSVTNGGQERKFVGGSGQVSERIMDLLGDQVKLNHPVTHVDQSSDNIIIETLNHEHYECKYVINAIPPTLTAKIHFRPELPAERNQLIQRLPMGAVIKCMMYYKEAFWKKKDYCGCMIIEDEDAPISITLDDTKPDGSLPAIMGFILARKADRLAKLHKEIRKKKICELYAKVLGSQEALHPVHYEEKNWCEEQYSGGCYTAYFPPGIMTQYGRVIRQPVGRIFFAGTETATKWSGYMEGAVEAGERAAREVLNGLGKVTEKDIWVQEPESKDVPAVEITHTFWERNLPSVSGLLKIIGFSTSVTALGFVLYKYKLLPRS
Description: Inhibition of MAOA (unknown origin) using beetle luciferin as substrate by MAO-Glo assay

[3] = molecular target: T2, Amine oxidase [flavin-containing] B (Homo sapiens, UniProt P27338)
T2 sequence (P27338 whole entry): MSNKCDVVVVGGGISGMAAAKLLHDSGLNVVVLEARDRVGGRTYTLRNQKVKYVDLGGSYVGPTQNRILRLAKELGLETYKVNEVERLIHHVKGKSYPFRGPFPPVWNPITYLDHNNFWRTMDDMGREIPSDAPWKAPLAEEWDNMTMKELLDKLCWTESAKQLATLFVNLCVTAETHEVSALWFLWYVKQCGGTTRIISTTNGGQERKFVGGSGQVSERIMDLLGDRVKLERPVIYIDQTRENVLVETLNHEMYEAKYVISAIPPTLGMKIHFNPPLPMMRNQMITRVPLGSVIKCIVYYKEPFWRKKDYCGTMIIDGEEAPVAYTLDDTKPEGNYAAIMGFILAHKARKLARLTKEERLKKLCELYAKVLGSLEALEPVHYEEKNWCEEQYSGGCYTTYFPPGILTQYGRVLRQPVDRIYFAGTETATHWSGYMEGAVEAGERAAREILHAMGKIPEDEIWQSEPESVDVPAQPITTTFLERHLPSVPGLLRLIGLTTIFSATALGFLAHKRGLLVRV
Description: Inhibition of MAOB (unknown origin) using beetle luciferin as substrate by MAO-Glo assay

[4] = molecular target: T3, Lysine-specific histone demethylase 1A (Homo sapiens, UniProt O60341)
Description: Inhibition of recombinant LSD1 (157 to 852 amino acids) (unknown origin) expressed in Escherichia coli BL21(DE) using H3K4me2 substrate by amplex red and horseradish peroxidase based fluorescence assay

SW-620 = test: cells; assay type: functional, cell-based; conditions: Homo sapiens, SW-620, 72 h
Description: Antiproliferative activity against human SW620 cells incubated for 72 hrs by MTT assay

Histone deacetylase 1 = Histone deacetylase 1 (Homo sapiens, UniProt Q13547); test: Inhibition of C-terminal His-tagged and C-terminal FLAG-tagged human HDAC1 expressed in baculovirus expression system using Ac-peptide substrate incubated for 15 mins by fluorescence based assay
A549 = test: cells; assay type: functional, cell-based; conditions: Homo sapiens, A549, 72 h
Description: Antiproliferative activity against human A549 cells incubated for 72 hrs by MTT assay

Histone deacetylase 5 = Histone deacetylase 5 (Homo sapiens, UniProt Q9UQL6); test: Inhibition of C-terminal His-tagged human HDAC5 (656-1122 residues) expressed in baculovirus expression system using Ac-peptide substrate incubated for 15 mins by fluorescence based assay; conditions: read-out: IC50
MCF7 = test: cells; assay type: functional, cell-based; conditions: Homo sapiens, MCF7, 72 h
Description: Antiproliferative activity against human MCF7 cells incubated for 72 hrs by MTT assay

MGC-803 [5] = test: Induction of apoptosis in human MGC803 cells assessed as late apoptotic cells level at 7.5 uM incubated for 48 hrs by Annexin-V-FITC/propidium iodide staining based flow cytometry (reference value: 0.121%); assay type: functional
MGC-803 [6] = test: Induction of apoptosis in human MGC803 cells assessed as early apoptotic cells level at 7.5 uM incubated for 48 hrs by Annexin-V-FITC/propidium iodide staining based flow cytometry (reference value: 7.35%); assay type: functional
MGC-803 [7] = test: Induction of apoptosis in human MGC803 cells assessed as viable cells level at 7.5 uM incubated for 48 hrs by Annexin-V-FITC/propidium iodide staining based flow cytometry (reference value: 92.3%); assay type: functional
MGC-803 [8] = test: Induction of apoptosis in human MGC803 cells assessed as viable cells level at 5 uM incubated for 48 hrs by Annexin-V-FITC/propidium iodide staining based flow cytometry (reference value: 92.3%); assay type: functional
MGC-803 [9] = test: Induction of apoptosis in human MGC803 cells assessed as viable cells level at 2.5 uM incubated for 24 hrs by Annexin-V-FITC/propidium iodide staining based flow cytometry (reference value: 94.6%); assay type: functional
MGC-803 [10] = test: Induction of apoptosis in human MGC803 cells assessed as late apoptotic cells level at 7.5 uM incubated for 24 hrs by Annexin-V-FITC/propidium iodide staining based flow cytometry (reference value: 0.447%); assay type: functional
[11] = molecular target: T3, Lysine-specific histone demethylase 1A; test: Inhibition of LSD1 in human MGC803 cells assessed as increase in cellular H3K4me3 levels at 1 uM incubated for 24 hrs by Western blot; assay type: cell-based
MGC-803 [12] = test: Induction of apoptosis in human MGC803 cells assessed as necrotic cells level at 7.5 uM incubated for 24 hrs by Annexin-V-FITC/propidium iodide staining based flow cytometry (reference value: 0.596%); assay type: functional
MGC-803 [13] = test: Induction of apoptosis in human MGC803 cells assessed as early apoptotic cells level at 2.5 uM incubated for 48 hrs by Annexin-V-FITC/propidium iodide staining based flow cytometry (reference value: 7.35%); assay type: functional
MGC-803 [14] = test: Induction of apoptosis in human MGC803 cells assessed as late apoptotic cells level at 5 uM incubated for 24 hrs by Annexin-V-FITC/propidium iodide staining based flow cytometry (reference value: 0.447%); assay type: functional
MGC-803 [15] = test: Induction of apoptosis in human MGC803 cells assessed as necrotic cells level at 2.5 uM incubated for 24 hrs by Annexin-V-FITC/propidium iodide staining based flow cytometry (reference value: 0.596%); assay type: functional
[16] = molecular target: T3, Lysine-specific histone demethylase 1A; remark: listed apart in the source
[17] = molecular target: T3, Lysine-specific histone demethylase 1A; test: Inhibition of LSD1 in human MGC803 cells assessed as increase in cellular H3K4me2 levels incubated for 24 hrs by Western blot; assay type: cell-based
[18] = molecular target: Histone deacetylase (Homo sapiens) (UniProt Q13547+O15379+Q9UBN7+Q92769+Q9UQL6+Q8WUI4+Q9BY41+Q96DB2+P56524+Q9UKV0+Q969S8); test: Inhibition of HDAC in human MGC803 cells assessed as increase in cellular histone H3 acetylation levels incubated for 24 hrs by Western blot; assay type: cell-based
MGC-803 [19] = test: Induction of mitochondrial membrane potential loss in human MGC803 cells incubated for 48 hrs by JC1 staining based flow cytometry; assay type: functional, cell-based
[20] = molecular target: T3, Lysine-specific histone demethylase 1A; test: Inhibition of LSD1 in human MGC803 cells assessed as increase in cellular H3K4me3 levels at 2 uM incubated for 24 hrs by Western blot; assay type: cell-based
MGC-803 [21] = test: Induction of apoptosis in human MGC803 cells assessed as viable cells level at 5 uM incubated for 24 hrs by Annexin-V-FITC/propidium iodide staining based flow cytometry (reference value: 94.6%); assay type: functional
MGC-803 [22] = test: Induction of mitochondrial membrane potential loss in human MGC803 cells assessed as FL2 red fluorescence level at 7.5 uM incubated for 48 hrs by JC1 staining based flow cytometry (reference value: 5.47%); assay type: functional
MGC-803 [23] = test: Induction of mitochondrial membrane potential loss in human MGC803 cells assessed as FL2 red fluorescence level at 5 uM incubated for 48 hrs by JC1 staining based flow cytometry (reference value: 5.47%); assay type: functional
MGC-803 [24] = test: Induction of apoptosis in human MGC803 cells assessed as early apoptotic cells level at 7.5 uM incubated for 24 hrs by Annexin-V-FITC/propidium iodide staining based flow cytometry (reference value: 4.37%); assay type: functional
MGC-803 [25] = test: Induction of apoptosis in human MGC803 cells assessed as viable cells level at 2.5 uM incubated for 48 hrs by Annexin-V-FITC/propidium iodide staining based flow cytometry (reference value: 92.3%); assay type: functional
MGC-803 [26] = test: Induction of apoptosis in human MGC803 cells assessed as early apoptotic cells level at 2.5 uM incubated for 24 hrs by Annexin-V-FITC/propidium iodide staining based flow cytometry (reference value: 4.37%); assay type: functional
MGC-803 [27] = test: Induction of apoptosis in human MGC803 cells assessed as early apoptotic cells level at 5 uM incubated for 48 hrs by Annexin-V-FITC/propidium iodide staining based flow cytometry (reference value: 7.35%); assay type: functional
MGC-803 [28] = test: Induction of apoptosis in human MGC803 cells assessed as early apoptotic cells level at 5 uM incubated for 24 hrs by Annexin-V-FITC/propidium iodide staining based flow cytometry (reference value: 4.37%); assay type: functional
MGC-803 [29] = test: Induction of apoptosis in human MGC803 cells assessed as necrotic cells level at 2.5 uM incubated for 48 hrs by Annexin-V-FITC/propidium iodide staining based flow cytometry (reference value: 0.242%); assay type: functional
MGC-803 [30] = test: Induction of apoptosis in human MGC803 cells assessed as viable cells level at 7.5 uM incubated for 24 hrs by Annexin-V-FITC/propidium iodide staining based flow cytometry (reference value: 94.6%); assay type: functional
MGC-803 [31] = test: Induction of mitochondrial membrane potential loss in human MGC803 cells assessed as FL2 red fluorescence level at 2.5 uM incubated for 48 hrs by JC1 staining based flow cytometry (reference value: 5.47%); assay type: functional
MGC-803 [32] = test: Induction of apoptosis in human MGC803 cells assessed as necrotic cells level at 5 uM incubated for 48 hrs by Annexin-V-FITC/propidium iodide staining based flow cytometry (reference value: 0.242%); assay type: functional
MGC-803 [33] = test: Induction of apoptosis in human MGC803 cells assessed as late apoptotic cells level at 2.5 uM incubated for 48 hrs by Annexin-V-FITC/propidium iodide staining based flow cytometry (reference value: 0.121%); assay type: functional
MGC-803 [34] = test: Induction of apoptosis in human MGC803 cells assessed as late apoptotic cells level at 5 uM incubated for 48 hrs by Annexin-V-FITC/propidium iodide staining based flow cytometry (reference value: 0.121%); assay type: functional
MGC-803 [35] = test: Induction of apoptosis in human MGC803 cells assessed as late apoptotic cells level at 2.5 uM incubated for 24 hrs by Annexin-V-FITC/propidium iodide staining based flow cytometry (reference value: 0.447%); assay type: functional
MGC-803 [36] = test: Induction of apoptosis in human MGC803 cells assessed as necrotic cells level at 7.5 uM incubated for 48 hrs by Annexin-V-FITC/propidium iodide staining based flow cytometry (reference value: 0.242%); assay type: functional
[37] = molecular target: T3, Lysine-specific histone demethylase 1A; test: Inhibition of LSD1 in human MGC803 cells assessed as increase in cellular H3K9me2 levels incubated for 24 hrs by Western blot; assay type: cell-based
MGC-803 [38] = test: Induction of apoptosis in human MGC803 cells assessed as necrotic cells level at 5 uM incubated for 24 hrs by Annexin-V-FITC/propidium iodide staining based flow cytometry (reference value: 0.596%); assay type: functional
MGC-803 [39] = test: Potency index, ratio of IC50 for SAHA to IC50 for test compound for antiproliferative activity against human MGC803 cells incubated for 72 hrs by MTT assay; assay type: functional

Chain of Histone deacetylase 1 (Q13547 whole entry): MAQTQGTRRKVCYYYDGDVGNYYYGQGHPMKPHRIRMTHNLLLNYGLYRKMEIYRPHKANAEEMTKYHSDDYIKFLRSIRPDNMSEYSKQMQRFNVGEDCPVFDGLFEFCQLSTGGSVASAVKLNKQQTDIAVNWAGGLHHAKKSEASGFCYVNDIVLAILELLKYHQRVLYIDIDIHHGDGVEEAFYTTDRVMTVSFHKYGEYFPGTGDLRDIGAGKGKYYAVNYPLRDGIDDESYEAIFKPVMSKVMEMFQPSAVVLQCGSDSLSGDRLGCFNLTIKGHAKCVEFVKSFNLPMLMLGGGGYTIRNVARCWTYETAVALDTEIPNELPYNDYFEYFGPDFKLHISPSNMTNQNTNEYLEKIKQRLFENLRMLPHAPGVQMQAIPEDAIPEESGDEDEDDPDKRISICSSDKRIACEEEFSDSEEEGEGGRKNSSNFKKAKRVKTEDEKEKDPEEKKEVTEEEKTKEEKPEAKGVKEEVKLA
Chain of Histone deacetylase 5 (Q9UQL6 whole entry, the tested form may be a part): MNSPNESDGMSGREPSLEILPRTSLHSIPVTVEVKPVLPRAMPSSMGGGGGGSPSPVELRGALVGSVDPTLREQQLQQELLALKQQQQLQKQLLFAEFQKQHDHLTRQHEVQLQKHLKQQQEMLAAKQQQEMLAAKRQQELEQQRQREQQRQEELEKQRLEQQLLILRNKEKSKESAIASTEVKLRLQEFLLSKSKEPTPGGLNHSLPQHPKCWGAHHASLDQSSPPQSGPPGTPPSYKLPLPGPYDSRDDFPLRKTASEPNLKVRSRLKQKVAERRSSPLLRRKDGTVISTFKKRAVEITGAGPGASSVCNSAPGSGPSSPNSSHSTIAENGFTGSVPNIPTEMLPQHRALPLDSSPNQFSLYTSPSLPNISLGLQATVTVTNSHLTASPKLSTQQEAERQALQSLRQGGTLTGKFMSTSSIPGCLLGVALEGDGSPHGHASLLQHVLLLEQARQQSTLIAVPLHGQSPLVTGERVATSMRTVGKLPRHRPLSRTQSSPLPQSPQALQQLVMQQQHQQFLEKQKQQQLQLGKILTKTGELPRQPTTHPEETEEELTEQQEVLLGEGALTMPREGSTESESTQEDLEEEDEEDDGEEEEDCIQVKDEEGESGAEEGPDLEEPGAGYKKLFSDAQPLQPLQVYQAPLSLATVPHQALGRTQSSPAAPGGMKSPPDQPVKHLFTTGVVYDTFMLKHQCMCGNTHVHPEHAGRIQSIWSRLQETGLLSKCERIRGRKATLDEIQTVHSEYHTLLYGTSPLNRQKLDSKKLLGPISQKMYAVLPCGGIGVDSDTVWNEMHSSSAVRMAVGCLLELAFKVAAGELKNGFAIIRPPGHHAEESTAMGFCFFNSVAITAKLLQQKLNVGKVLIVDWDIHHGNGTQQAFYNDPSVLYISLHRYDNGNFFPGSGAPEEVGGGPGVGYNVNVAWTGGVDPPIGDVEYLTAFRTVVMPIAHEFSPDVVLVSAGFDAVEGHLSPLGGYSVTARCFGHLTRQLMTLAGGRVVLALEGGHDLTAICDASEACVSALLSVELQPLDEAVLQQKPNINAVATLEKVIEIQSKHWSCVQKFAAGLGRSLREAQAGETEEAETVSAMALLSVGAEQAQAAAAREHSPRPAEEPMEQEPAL
Chain of Histone deacetylase 2 (Q92769 whole entry): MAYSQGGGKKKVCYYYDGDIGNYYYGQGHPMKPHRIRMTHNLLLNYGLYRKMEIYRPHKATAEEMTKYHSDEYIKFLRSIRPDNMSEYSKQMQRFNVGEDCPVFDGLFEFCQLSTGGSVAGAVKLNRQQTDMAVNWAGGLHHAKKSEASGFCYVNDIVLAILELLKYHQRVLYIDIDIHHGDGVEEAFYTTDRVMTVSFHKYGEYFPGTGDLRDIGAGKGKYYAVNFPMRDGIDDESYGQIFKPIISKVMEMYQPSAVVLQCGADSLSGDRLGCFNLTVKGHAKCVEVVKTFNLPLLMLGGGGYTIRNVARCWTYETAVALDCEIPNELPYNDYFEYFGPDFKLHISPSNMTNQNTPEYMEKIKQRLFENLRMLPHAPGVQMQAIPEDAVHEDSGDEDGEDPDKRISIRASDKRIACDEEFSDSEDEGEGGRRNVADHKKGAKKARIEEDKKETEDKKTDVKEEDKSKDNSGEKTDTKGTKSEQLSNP

IC50 (MGC-803 [1]): 2460 nM | IC50 (Histone deacetylase 2): 25 nM | IC50 (PC-3): 5620 nM | IC50 [2]: 39400 nM | IC50 [3]: > 100000 nM | IC50 [4]: 2210 nM | IC50 (SW-620): 4030 nM | IC50 (Histone deacetylase 1): 12 nM | IC50 (A549): 1410 nM | IC50 (Histone deacetylase 5): 2970 nM | IC50 (MCF7): 6240 nM
Structure (SMILES): O=C(/C=C/c1ccc(CNC2CC2c2ccccc2)cc1)NO (configuration not stated)

IC50 (MGC-803 [1]): 810 nM | IC50 (Histone deacetylase 2): 23 nM | IC50 (PC-3): 5480 nM | inhibition [11]: inactive | Ratio IC50 [16]: 25 | inhibition [17]: Dose-dependent effect | inhibition [18]: Dose-dependent effect | inhibition [20]: inactive | IC50 [2]: 21100 nM | IC50 [3]: 87100 nM | IC50 [4]: 1200 nM | IC50 (SW-620): 2350 nM | IC50 (Histone deacetylase 1): 15 nM | inhibition [37]: Dose-dependent effect | IC50 (A549): 1340 nM | IC50 (Histone deacetylase 5): 16800 nM | IC50 (MCF7): 4280 nM
Structure (SMILES): O=C(CCCCCCNC(=O)c1ccc(CNC2(c3ccccc3)CC2)cc1)NO
Activity (MGC-803 [5]): 49.6% | Activity (MGC-803 [6]): 41.4% | Activity (MGC-803 [7]): 7.42% | Activity (MGC-803 [8]): 11.9% | Activity (MGC-803 [9]): 72% | Activity (MGC-803 [10]): 10.9% | Activity (MGC-803 [12]): 2.71% | Activity (MGC-803 [13]): 37.2% | Activity (MGC-803 [14]): 11% | Activity (MGC-803 [15]): 1.22% | Activity (MGC-803 [19]): Dose-dependent effect | Activity (MGC-803 [21]): 60% | Activity (MGC-803 [22]): 94% | Activity (MGC-803 [23]): 83.5% | Activity (MGC-803 [24]): 31.7% | Activity (MGC-803 [25]): 25.4% | Activity (MGC-803 [26]): 22.5% | Activity (MGC-803 [27]): 42% | Activity (MGC-803 [28]): 26.2% | Activity (MGC-803 [29]): 2.2% | Activity (MGC-803 [30]): 54.7% | Activity (MGC-803 [31]): 46.6% | Activity (MGC-803 [32]): 2.21% | Activity (MGC-803 [33]): 35.2% | Activity (MGC-803 [34]): 43.9% | Activity (MGC-803 [35]): 4.27% | Activity (MGC-803 [36]): 1.61% | Activity (MGC-803 [38]): 2.82% | Ratio IC50 (MGC-803 [39]): 10
